Measured values from the supplement of paper PMC9013687.

What was measured:
[1] = test system: Danio rerio embryo
Protocol: (§1)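 Zebrafish embryos (UFZ-OBI strain) were exposed from 2 hpf for 48 h (2 dpf) or 96 h (4 dpf) at 28 °C; spontaneous tail coiling was scored at 25 hpf. Morphological features from automated image analysis (FishInspector), heart rate and locomotor response were fitted with drc models. Quantal endpoints were dichotomised at 2.5 SD from controls and fitted with a log-logistic model; heart rate, pigmentation and STC were normalised to the replicate control mean. Betamethasone was tested as betamethasone dipropionate, diflorasone as diflorasone diacetate.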

[2] = test system: Danio rerio embryo; settings: exposure time: 4 dpf
Protocol: as §1

[3] = test system: Danio rerio embryo; assay: EC50 Curvature_Increase
Protocol: as §1

[4] = test system: Danio rerio embryo; assay: EC50 Body length_Decrease
Protocol: as §1

[5] = test system: Danio rerio embryo; assay: EC50 Bladder size_Decrease; settings: exposure time: 4 dpf
Protocol: as §1

[6] = test system: Danio rerio embryo; assay: EC50 Pericard size_Increase
Protocol: as §1

[7] = test system: Danio rerio embryo; assay: EC50 Yolk sac size_Increase
Protocol: as §1

[8] = test system: Danio rerio embryo; assay: EC50 Eye-jaw distance_Decrease; settings: exposure time: 4 dpf
Protocol: as §1

[9] = test system: Danio rerio embryo; assay: EC50 Otolith-eye distance_Decrease; settings: exposure time: 4 dpf
Protocol: as §1

[10] = test system: Danio rerio embryo; assay: EC10 LMR dark; higher = less potent; settings: exposure time: 4 dpf
Protocol: as §1

[11] = test system: Danio rerio embryo; assay: EC20 LMR dark; higher = less potent; settings: exposure time: 4 dpf
Protocol: as §1

[12] = test system: Danio rerio embryo; assay: EC20 Any effect; higher = less potent
Protocol: as §1

[13] = test system: Danio rerio embryo; assay: EC10 Any effect; higher = less potent
Protocol: as §1

[14] = test system: Danio rerio embryo; assay: EC10 Curvature_Increase; higher = less potent
Protocol: as §1

[15] = test system: Danio rerio embryo; assay: EC20 Curvature_Increase; higher = less potent
Protocol: as §1

[16] = test system: Danio rerio embryo; assay: EC20 Body length_Decrease; higher = less potent
Protocol: as §1

[17] = test system: Danio rerio embryo; assay: EC10 Body length_Decrease; higher = less potent
Protocol: as §1

[18] = test system: Danio rerio embryo; assay: EC10 Bladder size_Decrease; higher = less potent; settings: exposure time: 4 dpf
Protocol: as §1

[19] = test system: Danio rerio embryo; assay: EC20 Bladder size_Decrease; higher = less potent; settings: exposure time: 4 dpf
Protocol: as §1

[20] = test system: Danio rerio embryo; assay: EC20 Yolk sac size_Increase; higher = less potent
Protocol: as §1

[21] = test system: Danio rerio embryo; assay: EC20 Pericard size_Increase; higher = less potent
Protocol: as §1

[22] = test system: Danio rerio embryo; assay: EC10 Yolk sac size_Increase; higher = less potent
Protocol: as §1

[23] = test system: Danio rerio embryo; assay: EC10 Pericard size_Increase; higher = less potent
Protocol: as §1

[24] = test system: Danio rerio embryo; assay: EC20 Eye-jaw distance_Decrease; higher = less potent; settings: exposure time: 4 dpf
Protocol: as §1

[25] = test system: Danio rerio embryo; assay: EC10 Eye-jaw distance_Decrease; higher = less potent; settings: exposure time: 4 dpf
Protocol: as §1

[26] = test system: Danio rerio embryo; assay: EC20 Head trunk angle_Decrease; higher = less potent; settings: exposure time: 2 dpf
Protocol: as §1

[27] = test system: Danio rerio embryo; assay: EC20 Otolith-eye distance_Decrease; higher = less potent; settings: exposure time: 4 dpf
Protocol: as §1

[28] = test system: Danio rerio embryo; assay: EC10 Otolith-eye distance_Decrease; higher = less potent; settings: exposure time: 4 dpf
Protocol: as §1

[29] = test system: Danio rerio embryo; assay: spontaneous tail coiling frequency (coils/min/embryo); higher = more spontaneous movement; settings: 25 hpf
Protocol: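 Spontaneous tail coilings of zebrafish embryos exposed from 2 hpf were recorded at 24-25 hpf in 1-min videos and detected by a KNIME workflow from grey-value variance. Betamethasone was tested as the dipropionate, diflorasone as the diacetate.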

CCCCC(O)(Cn1cncn1)c1ccc(Cl)cc1Cl (stereo unspecified) [Hexaconazole]
Settings | EC10 Any effect [µM] | EC10 Body length Decrease [µM] | EC10 Curvature Increase [µM] | EC10 Pericard size Increase [µM] | EC10 Yolk sac size Increase [µM] | EC20 Any effect [µM] | EC20 Body length Decrease [µM] | EC20 Curvature Increase [µM] | EC20 Pericard size Increase [µM] | EC20 Yolk sac size Increase [µM] | EC50 Any effect [µM] | EC50 Body length Decrease [µM] | EC50 Curvature Increase [µM] | EC50 Pericard size Increase [µM] | EC50 STC bell shape [µM] | EC50 Yolk sac size Increase [µM] | spontaneous tail coiling frequency
[1], exposure time: 2 dpf | – | – | – | – | – | – | – | – | – | – | 19.5 | – | – | – | – | – | –
[1], exposure time: 4 dpf | – | – | – | – | – | – | – | – | – | – | 10.8 | – | – | – | – | – | –
[1], exposure time: 25 h | – | – | – | – | – | – | – | – | – | – | – | – | – | – | 23.4 | – | –
[3], exposure time: 2 dpf | – | – | – | – | – | – | – | – | – | – | – | – | 21.2 | – | – | – | –
[3], exposure time: 4 dpf | – | – | – | – | – | – | – | – | – | – | – | – | 17.5 | – | – | – | –
[4], exposure time: 2 dpf | – | – | – | – | – | – | – | – | – | – | – | 33.4 | – | – | – | – | –
[4], exposure time: 4 dpf | – | – | – | – | – | – | – | – | – | – | – | 16.8 | – | – | – | – | –
[6], exposure time: 2 dpf | – | – | – | – | – | – | – | – | – | – | – | – | – | 31.5 | – | – | –
[6], exposure time: 4 dpf | – | – | – | – | – | – | – | – | – | – | – | – | – | 20.4 | – | – | –
[7], exposure time: 2 dpf | – | – | – | – | – | – | – | – | – | – | – | – | – | – | – | 51.2 | –
[7], exposure time: 4 dpf | – | – | – | – | – | – | – | – | – | – | – | – | – | – | – | 9.95 | –
[12], exposure time: 2 dpf | – | – | – | – | – | 15.7 | – | – | – | – | – | – | – | – | – | – | –
[12], exposure time: 4 dpf | – | – | – | – | – | 9.17 | – | – | – | – | – | – | – | – | – | – | –
[13], exposure time: 2 dpf | 13.8 | – | – | – | – | – | – | – | – | – | – | – | – | – | – | – | –
[13], exposure time: 4 dpf | 8.34 | – | – | – | – | – | – | – | – | – | – | – | – | – | – | – | –
[14], exposure time: 2 dpf | – | – | 17.5 | – | – | – | – | – | – | – | – | – | – | – | – | – | –
[14], exposure time: 4 dpf | – | – | 11.8 | – | – | – | – | – | – | – | – | – | – | – | – | – | –
[15], exposure time: 2 dpf | – | – | – | – | – | – | – | 18.8 | – | – | – | – | – | – | – | – | –
[15], exposure time: 4 dpf | – | – | – | – | – | – | – | 13.7 | – | – | – | – | – | – | – | – | –
[16], exposure time: 2 dpf | – | – | – | – | – | – | 23.5 | – | – | – | – | – | – | – | – | – | –
[16], exposure time: 4 dpf | – | – | – | – | – | – | 13.7 | – | – | – | – | – | – | – | – | – | –
[17], exposure time: 2 dpf | – | 19.2 | – | – | – | – | – | – | – | – | – | – | – | – | – | – | –
[17], exposure time: 4 dpf | – | 12.2 | – | – | – | – | – | – | – | – | – | – | – | – | – | – | –
[20], exposure time: 2 dpf | – | – | – | – | – | – | – | – | – | 47.2 | – | – | – | – | – | – | –
[20], exposure time: 4 dpf | – | – | – | – | – | – | – | – | – | 6.81 | – | – | – | – | – | – | –
[21], exposure time: 2 dpf | – | – | – | – | – | – | – | – | 17.9 | – | – | – | – | – | – | – | –
[21], exposure time: 4 dpf | – | – | – | – | – | – | – | – | 16.9 | – | – | – | – | – | – | – | –
[22], exposure time: 2 dpf | – | – | – | – | 45 | – | – | – | – | – | – | – | – | – | – | – | –
[22], exposure time: 4 dpf | – | – | – | – | 5.45 | – | – | – | – | – | – | – | – | – | – | – | –
[23], exposure time: 2 dpf | – | – | – | 12.8 | – | – | – | – | – | – | – | – | – | – | – | – | –
[23], exposure time: 4 dpf | – | – | – | 15.2 | – | – | – | – | – | – | – | – | – | – | – | – | –
[29], 5 µM | – | – | – | – | – | – | – | – | – | – | – | – | – | – | – | – | 10.3
[29], 9.9 µM | – | – | – | – | – | – | – | – | – | – | – | – | – | – | – | – | 9.83
[29], 13.3 µM | – | – | – | – | – | – | – | – | – | – | – | – | – | – | – | – | 9.46
[29], 19.9 µM | – | – | – | – | – | – | – | – | – | – | – | – | – | – | – | – | 9.25
[29], 26.5 µM | – | – | – | – | – | – | – | – | – | – | – | – | – | – | – | – | 1.62
[29], 53 µM | – | – | – | – | – | – | – | – | – | – | – | – | – | – | – | – | 0
[29], 79.6 µM | – | – | – | – | – | – | – | – | – | – | – | – | – | – | – | – | 0

Settings | EC10 Bladder size Decrease [µM] | EC10 Eye-jaw distance Decrease [µM] | EC10 LMR dark [µM] | EC10 Otolith-eye distance Decrease [µM] | EC20 Bladder size Decrease [µM] | EC20 Eye-jaw distance Decrease [µM] | EC20 Head trunk angle Decrease [µM] | EC20 LMR dark [µM] | EC20 Otolith-eye distance Decrease [µM] | EC50 Bladder size Decrease [µM] | EC50 Eye-jaw distance Decrease [µM] | EC50 LMR dark [µM] | EC50 Otolith-eye distance Decrease [µM]
[2] | – | – | – | – | – | – | – | – | – | – | – | 4.83 | –
[5] | – | – | – | – | – | – | – | – | – | 10.3 | – | – | –
[8] | – | – | – | – | – | – | – | – | – | – | 13.1 | – | –
[9] | – | – | – | – | – | – | – | – | – | – | – | – | 19.8
[10] | – | – | 3.21 | – | – | – | – | – | – | – | – | – | –
[11] | – | – | – | – | – | – | – | 3.68 | – | – | – | – | –
[18] | 6.28 | – | – | – | – | – | – | – | – | – | – | – | –
[19] | – | – | – | – | 7.52 | – | – | – | – | – | – | – | –
[24] | – | – | – | – | – | 10.5 | – | – | – | – | – | – | –
[25] | – | 9.21 | – | – | – | – | – | – | – | – | – | – | –
[26] | – | – | – | – | – | – | 16 | – | – | – | – | – | –
[27] | – | – | – | – | – | – | – | – | 19.7 | – | – | – | –
[28] | – | – | – | 19.6 | – | – | – | – | – | – | – | – | –
